Values of other authors, collected in patent US12721834B2, “Combination treatment for Netherton syndrome” (Quoin Pharmaceuticals Inc., priority 2023, dated 2026).

Details: in vivo

Poly(vinylpyrrolidone/1-eicosene) [PVPE]
dermal toxicity: no demonstrable dermal toxicity

Poly(vinylpyrrolidone/1-hexadecene) [PVPH]
dermal toxicity: no demonstrable dermal toxicity
